Test results from patent US20140135326A1, “METHOD OF TREATMENT OF AGGRESSION” (Supernus Pharmaceuticals, Inc., priority 2012, published 2014).

Legend:
Assay type in all cases: in vivo, human
[1] = system: impulsive aggression in ADHD patients; test: Phase IIb study, R-MOAS score change from baseline
Method: (§1) A Phase IIb study was conducted for the treatment of impulsive aggression in Attention Deficit and Hyperactivity Disorder (ADHD) patients with a pharmaceutical preparation of molindone. The study was a multi-center randomized, double-blind, placebo controlled clinical trial in children 6 to 12 diagnosed with ADHD and characterized by impulsive aggression that is not controlled by optimal stimulant and psychosocial treatment. It was a dose finding study with the primary objective of identifying an effective dose range in children of different weight or age groups. The children were divided into two […] (i.e., less than 30 kg and greater than or equal to 30 kg). The low, medium, and high doses for the under 30 kg group were 12 mg, 24 mg, and 36 mg, respectively. Similarly, the low, medium, and high doses for the 30 kg and over group were 18 mg, 36 mg, and 54 mg, respectively. Three doses of molindone were studied with the primary endpoints of (a) effect in reducing impulsive aggression (measured with change in the score of the Retrospective-Modified Overt Aggression Scale “R-MOAS” at the end of the study from the baseline), and (b) rate of remission of aggression, after at least three weeks of treatment. Secondary objectives included safety and tolerability of molindone as well as the effect on the Clinical Global Impression and the Oppositional […] Disorder subscale score of the SNAP-IV Questionnaire and other endpoints [e.g., SNAP, clinical labs, AEs, etc.]. Patients who completed the study were offered the opportunity to continue into an open-label phase of six months duration.

[2] = system: impulsive aggression in ADHD patients; test: Phase IIb study, rate of remission of aggression (R-MOAS ≦ 10); conditions: for Remission Rate at End of Study (Visit 10): R-MOAS ≦ 10, LOCF
Method: as §1

[3] = Phase IIb study, safety and tolerability; conditions: throughout the study, across all doses
Method: A Phase IIb study was conducted for the treatment of impulsive aggression in Attention Deficit and Hyperactivity Disorder (ADHD) patients with a pharmaceutical preparation of molindone. The study was a multi-center randomized, double-blind, placebo controlled clinical trial in children 6 to 12 diagnosed with ADHD and characterized by impulsive aggression that is not controlled by optimal stimulant and psychosocial treatment. It was a dose finding study with the primary objective of identifying an effective dose range in children of different weight or age groups. The children were divided into two […] (i.e., less than 30 kg and greater than or equal to 30 kg). The low, medium, and high doses for the under 30 kg group were 12 mg, 24 mg, and 36 mg, respectively. Similarly, the low, medium, and high doses for the 30 kg and over group were 18 mg, 36 mg, and 54 mg, respectively. Three doses of molindone were studied with the primary endpoints of (a) effect in reducing impulsive aggression (measured with change in the score of the Retrospective-Modified Overt Aggression Scale “R-MOAS” at the end of the study from the baseline), and (b) rate of remission of aggression, after at least three weeks of treatment. Secondary objectives included safety and tolerability of molindone as well as the effect on the Clinical Global Impression and the Oppositional […] […]

CCc1c(C)[nH]c2c1C(=O)C(CN1CCOCC1)CC2 (stereo not drawn) [molindone]
efficacy across any of the measures ([1]; 30 kg or more, high dose (54 mg)): did not show efficacy
R-MOAS (LOCF) Change from Baseline, mean (SD) ([1]; <30 kg, high dose (36 mg)): −16.4 (36.90)
R-MOAS (LOCF) End of treatment (visit 10), mean (SD) ([1]; <30 kg, high dose (36 mg)): 32.2 (24.14)
R-MOAS (LOCF) Change from Baseline, mean (SD) ([1]; <30 kg, low dose (12 mg)): −25.1 (23.00)
R-MOAS (LOCF) End of treatment (visit 10), mean (SD) ([1]; <30 kg, low dose (12 mg)): 34.2 (27.29)
R-MOAS (LOCF) Change from Baseline, mean (SD) ([1]; <30 kg, medium dose (24 mg)): −30.7 (31.22)
R-MOAS (LOCF) End of treatment (visit 10), mean (SD) ([1]; <30 kg, medium dose (24 mg)): 38.5 (36.70)
statistical significance vs placebo on the R-MOAS endpoint ([1]; patients under 30 kg, the studied doses (12, 24, 36 mg)): did not show statistical significance
R-MOAS (LOCF) Change from Baseline, mean (SD) ([1]; ≧30 kg, high dose (54 mg)): −23.0 (27.55)
R-MOAS (LOCF) End of treatment (visit 10), mean (SD) ([1]; ≧30 kg, high dose (54 mg)): 28.8 (40.60)
R-MOAS (LOCF) Change from Baseline, mean (SD) ([1]; ≧30 kg, low dose (18 mg)): −41.7(32.48)
R-MOAS (LOCF) End of treatment (visit 10), mean (SD) ([1]; ≧30 kg, low dose (18 mg)): 9.8 (13.01)
R-MOAS (LOCF) Change from Baseline, mean (SD) ([1]; ≧30 kg, medium dose (36 mg)): −40.9(34.84)
R-MOAS (LOCF) End of treatment (visit 10), mean (SD) ([1]; ≧30 kg, medium dose (36 mg)): 13.5(15.71)
Remission, Treatment vs Placebo Odds Ratio ([2]; <30 kg, high dose (36 mg)): 0.62
Remission, Treatment vs Placebo Odds Ratio ([2]; <30 kg, low dose (12 mg)): 1.53
Remission, Treatment vs Placebo Odds Ratio ([2]; <30 kg, medium dose (24 mg)): 1.36
Remission Rate at End of Study (Visit 10) ([2]; <30 kg, high dose (36 mg)): 3 (21.4) n(%)
Remission Rate at End of Study (Visit 10) ([2]; <30 kg, low dose (12 mg)): 4 (33.3) n(%)
Remission Rate at End of Study (Visit 10) ([2]; <30 kg, medium dose (24 mg)): 4 (26.7) n(%)
Remission Rate at End of Study (Visit 10) ([2]; ≧30 kg, high dose (54 mg)): 7 (41.2) n(%)
Remission Rate at End of Study (Visit 10) ([2]; ≧30 kg, low dose (18 mg)): 10 (66.7) n(%)
Remission Rate at End of Study (Visit 10) ([2]; ≧30 kg, medium dose (36 mg)): 8 (53.3) n(%)
Remission, Treatment vs Placebo Odds Ratio ([2]; ≧30 kg, high dose (54 mg)): 4.07
Remission, Treatment vs Placebo Odds Ratio ([2]; ≧30 kg, low dose (18 mg)): 12.08
Remission, Treatment vs Placebo Odds Ratio ([2]; ≧30 kg, medium dose (36 mg)): 7.07
tolerability [3]: well tolerated
